Measured values reported in patent publication US11060715B2, “Ex vivo proliferation of epithelial cells” (PROPAGENIX INC., priority 2015, dated 2021).

What was measured:
[1] = system: human telomerase reverse transcriptase (hTERT) gene; assay: hTERT expression by quantitative real-time PCR in prostate epithelial cells; assay type: cell-based; conditions: KSFM
Procedure: (§1) Total RNA was prepared using TRIzol® Plus RNA Purification Kit (Life Technologies, 12183-555) and PureLink® RNA Mini Kit (Life Technologies, 12183018A), following the manufacturer's instructions. One hundred nanogram total RNA was used for the determination of human telomerase reverse transcriptase (hTERT) expression using the TaqMan® RNA-to-CT™ 1-Step Kit (Life Technologies, 4392938), following the protocol provided by the supplier. hTERT primers and Taqman® probe used were as follows: forward primer, 5′-[…]-3′ (SEQ ID NO:7), reverse primer, 5′-[…]-3′ (SEQ ID NO:8) and Taqman® probe, 5′-[…]-3′ (SEQ ID NO:9).
(§2) In this example, hTERT expression in epithelial cells was assessed in the presence of an ALK5 inhibitor, a Rho kinase inhibitor (i.e., a Rho-associated protein kinase inhibitor), or both. Expression of hTERT gene was examined by quantitative real-time PCR in bronchial epithelial cells and prostate epithelial cells. The cells were treated with an ALK5 inhibitor, A83-01, or a Rho kinase inhibitor (i.e., a Rho-associated protein kinase inhibitor), Y-27632, or both inhibitors, at different passages in KSFM.
As shown in FIG. 6A and FIG. 6B, prostate epithelial cells at early passage (p2) expressed low level of hTERT, which quickly diminished at passage 3 and became non-detectible by passage 5.

[2] = system: prostate epithelial cells; assay: Plating efficiency of prostate epithelial cells in KSFM; assay type: cell-based, human; conditions: regular tissue culture surface
Procedure: (§3) Epithelial cells (prostate epithelial cells and bronchial epithelial cells) were plated at 3,000-10,000 viable cells/cm^2 in tissue culture vessels, using culture medium as indicated in Examples 2 to 5 and FIGS. 1 to 17, and incubated at 37° C. with 5% CO2. The medium was changed every 2 or 3 days. Cells were sub-cultured using standard trypsinization method when they were about 70-90% confluent. Total cell number was determined using the Countess II Automated Cell Counter (Life Technologies, AMQAX1000) following manufacturer's instructions.
(§4) In this example, epithelial cell plating efficiency, i.e., number of cells that efficiently attach to the cell culture surfaces, continue to divide and grow into colonies, was examined under various conditions.
(§5) However, those few cells that did attach continued to proliferate.
Many prostate epithelial cells attached to regular tissue culture surface in the presence of both A83-01 and Y-27632 at day 2 after plating.

[3] = system: late passage prostate epithelial cells; assay: Proliferation of late passage prostate epithelial cells in KSFM plus compounds, 5 days; assay type: cell-based, human
Procedure: Stocks of certain chemicals used in the study were prepared by dissolving in DMSO to 10 mM. The chemical stocks were added to culture media to desired final concentrations, as described in Examples 2 to 5 and shown in FIGS. 1 to 17, from the time when cell culture was initiated.
In a control experiment with no added compound, there was minimum increase of cell numbers after 5 days.
In control experiment with no inhibitor added to KSFM, there was minimum increase of cell numbers after 5 days. […] As described above, these include Rho kinase inhibitors (i.e., Rho-associated protein kinase inhibitors) such as Y-27632, SR 3677, GSK 429286 and Thiazovivin; PAK1 inhibitor IPA-3; and myosin II inhibitor (i.e., non-muscle myosin II (NM II) inhibitor) Blebbistatin.

[4] = system: prostate epithelial cells; assay: Growth (population doublings) of prostate epithelial cells in culture; assay type: cell-based, human
Procedure: as §3
(§6) A formula used for the calculation of population doublings (PD) is presented in Equation A: n=3.32*(log Y−log I)+X Equation A where n=the final PD number at end of a given subculture, Y=the cell yield at the time of harvesting, I=the cell number used as inoculum to begin that subculture, and X=the doubling level of the inoculum used to initiate the subculture being quantitated.
(§7) Prostate and bronchial epithelial cells were grown in KSFM in the presence of Rho kinase inhibitor (i.e., Rho-associated protein kinase inhibitor) Y-27632.
To examine the effects of additional in vitro and/or ex vivo growth conditions, prostate epithelial cells were grown in KSFM or PrEGM in the presence of media alone, ALK5 inhibitor A83-01, Rho kinase inhibitor (i.e., Rho-associated protein kinase inhibitor) Y-27632, or both (with or without collagen).

[5] = system: keratinocytes; assay: Expansion of keratinocytes in KSFM supplemented with combinations of components; assay type: cell-based, human; conditions: increasing doses, KSFM with EGF, isoproterenol, A 83-01 and rHA
Procedure: In another experiment, keratinocytes were cultured in KSFM supplemented with various combinations of components.
In another experiment, keratinocytes were cultured in the presence of increasing doses of ROCK inhibitor (Y-27632) or Myosin II ATPase inhibitor (blebbistatin), in KSFM supplemented with EGF (0.5 ng/mL), isoproterenol (3 μM), A 83-01 (1 μM), and recombinant human serum albumin (expressed in rice; 100 μg/mL).
In another experiment, keratinocytes were cultured in the presence of increasing doses (between 10 nM to 2 μM) of retinoic acid receptors (RAR) antagonist BMS-453 or retinoic acid receptors (RAR) antagonist BMS-195614, in KSFM supplemented with EGF (0.5 ng/mL), isoproterenol (3 μM), A 83-01 (1 μM), and recombinant human serum albumin (expressed in rice; 100 μg/mL).

[6] = system: human telomerase reverse transcriptase (hTERT) gene; assay: hTERT expression by quantitative real-time PCR in bronchial epithelial cells; assay type: cell-based; conditions: KSFM
Procedure: as §1, §2

[7] = system: bronchial epithelial cells; assay: Plating efficiency of bronchial epithelial cells in KSFM; assay type: cell-based, human; conditions: regular tissue culture surface
Procedure: as §3, §4, §5
Many bronchial epithelial cells attached to regular tissue culture surface in the presence of both A83-01 and Y-27632 at day 2 after plating.

[8] = system: bronchial epithelial cells; assay: Growth (population doublings) of bronchial epithelial cells in culture; assay type: cell-based, human
Procedure: as §3, §6, §7
Similar to the experiment above, bronchial epithelial cells were grown in KSFM in the presence of media alone, ALK5 inhibitor A83-01, Rho kinase inhibitor (i.e., Rho-associated protein kinase inhibitor) Y-27632, or both (with or without collagen).

[9] = system: human foreskin keratinocytes (HFK) and human bronchial epithelial cells (HBEC); assay: Cell growth with increasing isoproterenol in KSFM plus A83-01 and Y-27632, six days; assay type: cell-based; conditions: in KSFM plus 1 μM A83-01 and 5 μM Y-27632, six days
Procedure: In a further investigation, epithelial cell growth was assessed in the presence of a beta-adrenergic agonist (i.e., a beta-adrenergic receptor agonist). Human foreskin keratinocytes (HFK) and human bronchial epithelial cells (HBEC) were cultured in KSFM plus 1 μM A83-01 and 5 μM Y-27632, supplemented with increasing concentrations of isoproterenol (a beta-adrenergic receptor agonist that increases cytosolic cAMP levels). Cell numbers were counted after six days to calculate cell growth relative to control.

[10] = KSFM, compound used alone, late passage

Compound | hTERT expression ([1]; early passage (p2)) | hTERT expression ([1]; late passage (p5)) | plating efficiency in the presence of A83-01 [2] | cell proliferation after 5 days ([3]; KSFM plus compound alone (FIG. 17)) | total cell number after 5 days ([3]; KSFM plus individual compound alone, 5 μM, 1 μM and 0.2 μM (FIG. 16)) | cell proliferation after 5 days ([3]; used together with A83-01 in KSFM, 5 μM, 1 μM and 0.2 μM (FIG. 17)) | population doubling (PD) reached before cells entered senescence ([4]; KSFM) | proliferation [4, 10] | total population doublings ([4]; added to KSFM) | cell growth rate [5] | hTERT expression ([6]; early passage (p3)) | hTERT expression ([6]; late passage (p6)) | plating efficiency in the presence of A83-01 [7] | proliferation [8, 10] | total population doublings ([8]; added to KSFM) | cell growth relative to control [9]
C[C@@H](N)[C@H]1CC[C@H](C(=O)Nc2ccncc2)CC1.Cl.Cl [Y-27632, (R)-(+)-trans-4-(1-Aminoethyl)-N-(4-Pyridyl)cyclohexanecarboxamide dihydrochloride] | induced | non-detectible | ameliorated the low plating efficiency | slight increase of cell proliferation | slight increase of total cell numbers | synergistically increased | > 20 | did not promote the proliferation | slightly increased the total population doublings | No significant increase of cell growth rate | slightly induced | non-detectible | ameliorated the low plating efficiency | did not promote the proliferation | slightly increased the total population doublings | 
CC(C)NCC(O)c1ccc(O)c(O)c1 (stereo not shown) [isoproterenol] |  |  |  |  |  |  |  |  |  |  |  |  |  |  |  | further increased epithelial cells growth
